{"source": "patent US20150223456A1", "about": "“PESTICIDAL COMPOUNDS” (SYNGENTA PARTICIPATIONS AG, priority 2011, published 2015)"}
{"smiles": "O=C(NCC1(c2ccc(Cl)nc2Cl)CC1)c1cccnc1Cl", "note": "[A.122, 2-Chloro-N-[1-(2,6-dichloro-pyridin-3-yl)-cyclopropylmethyl]nicotinamide]", "values": [{"measurement": "melting point", "result": "206 to 207", "unit": "°C"}]}
